According to US7276631B2, “Cyclopentylamine and cyclohexylamine derivatives as NK-1/SSRI antagonists” (Bristol-Myers Squibb Company, priority 2004, dated 2007):

Legend:
[1] = target: T1, neurokinin-1 (NK-1) receptor (Homo sapiens, UniProt P25103); assay: NK-1 binding (competition with [125I] Substance P, U373 cell membranes); details: [125I] Substance P displacement
T1 construct: a human glioblastoma-astrocytoma cell line that endogenously express the neurokinin-1 (NK-1) receptor; endogenous in cells; host or cells: U373 human glioblastoma-astrocytoma cells (membranes)
T1 sequence (P25103 whole entry): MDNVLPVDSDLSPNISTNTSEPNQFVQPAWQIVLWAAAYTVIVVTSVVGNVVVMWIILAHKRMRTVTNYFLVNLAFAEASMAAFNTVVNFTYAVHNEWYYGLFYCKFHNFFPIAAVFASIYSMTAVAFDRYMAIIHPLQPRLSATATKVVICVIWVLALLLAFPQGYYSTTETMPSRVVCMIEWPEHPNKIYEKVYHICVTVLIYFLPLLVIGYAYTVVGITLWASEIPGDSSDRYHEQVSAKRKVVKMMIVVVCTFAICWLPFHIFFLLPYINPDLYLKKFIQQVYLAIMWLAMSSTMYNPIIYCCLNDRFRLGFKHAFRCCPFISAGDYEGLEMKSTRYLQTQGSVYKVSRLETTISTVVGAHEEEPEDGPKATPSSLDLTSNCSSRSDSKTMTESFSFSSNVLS
Method: U373 cells, a human glioblastoma-astrocytoma cell line that endogenously express the neurokinin-1 (NK-1) receptor, were grown in a monolayer culture at 37° C. in 5% CO2 and fed with Minimum Essential Medium (MEM) supplemented with 10% fetal bovine serum. Membranes were prepared as follows: Cells were washed twice with ice-cold phosphate-buffered saline (pH 7.4) and then incubated for 5 to 10 minutes with ice-cold 10 mM Tris buffer (pH 7.4) containing 5 mM EDTA. Cells were removed from plates, homogenized, and centrifuged at 32,000×g for 20 minutes. The resulting supernatant was discarded, and the pellet resuspended by homogenization in 50 mM Tris buffer (pH 7.4) containing 1 mM EDTA and centrifuged at 32,000×g for 20 minutes. The resulting supernatant was discarded, and the pellet resuspended by homogenization in NK-1 binding assay buffer (50 mM Tris-HCL (pH 7.4), 3 mM MnCl2, 200 μg/ml BSA, 5 μg/ml chymostatin, 40 μg/ml bacitracin and 4 μg/ml leupeptin).
On the day of an experiment the membrane preparation was thawed, homogenized and diluted with NK-1 binding assay buffer to the appropriate concentration. Competition binding assays were performed in 96 well plate format by incubating membranes (5-10 ug/well) with Bolton Hunter labeled [^125I] Substance P, at a concentration of […], and concentrations of drugs ranging from 10000 to 0.01 nM. Samples were incubated for 30 min at 20° C. then filtered through GF/B glass fiber filters (pretreated with 1% polyethyleneimine and 0.3% Triton X-100) using a Brandel cell harvester. The filters were then washed with 10 ml ice cold 50 mM Tris-HCL (pH 7.4) containing 3 mM MgCl2. Non-specific was defined in the presence of 2 μM L-733,060 (a non-peptide NK-1 antagonist). Amount of radioligand bound in the presence and absence of competitor was analyzed by plotting (−)log drug concentration versus the amount of radioligand specifically bound. The midpoint of the displacement curve (IC50, nM), signifies the potency. Ki values were calculated using the method of Cheng and Prusoff [Cheng, Y.-C. and Prusoff, W. H., Biochemical Pharmacology, Vol. 22, pp. 3099-3108, Pergamon Press (1973)].

[2] = target: T2, human serotonin transporters (Homo sapiens, UniProt P31645); assay: Serotonin transporter binding assay ([3H]-citalopram, HEK-hSERT cell membranes); details: [3H]-citalopram displacement, read-out: SERT IC50
T2 construct: expressed in transfected cells; host or cells: HEK-293 cells stably expressing hSERT (membranes)
T2 sequence (P31645 whole entry): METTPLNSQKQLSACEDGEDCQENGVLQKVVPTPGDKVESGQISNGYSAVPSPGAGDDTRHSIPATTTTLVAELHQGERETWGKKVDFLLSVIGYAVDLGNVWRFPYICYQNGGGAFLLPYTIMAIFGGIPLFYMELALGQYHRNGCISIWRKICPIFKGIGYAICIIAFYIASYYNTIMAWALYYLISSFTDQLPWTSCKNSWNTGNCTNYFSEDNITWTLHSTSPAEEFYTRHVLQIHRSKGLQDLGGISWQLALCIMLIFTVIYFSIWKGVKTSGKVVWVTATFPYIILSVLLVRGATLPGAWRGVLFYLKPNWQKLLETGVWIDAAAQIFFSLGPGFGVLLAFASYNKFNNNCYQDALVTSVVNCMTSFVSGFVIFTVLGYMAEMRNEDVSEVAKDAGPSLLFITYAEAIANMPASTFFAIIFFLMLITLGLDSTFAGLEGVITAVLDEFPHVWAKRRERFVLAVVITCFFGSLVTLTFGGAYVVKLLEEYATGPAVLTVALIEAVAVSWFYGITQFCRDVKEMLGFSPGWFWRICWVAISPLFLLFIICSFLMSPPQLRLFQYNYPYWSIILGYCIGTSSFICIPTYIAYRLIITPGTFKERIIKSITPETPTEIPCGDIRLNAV
Method: HEK-293 cells that stably express human serotonin transporters (HEK-hSERT cells) were grown at 37° C. in 5% CO2 as a monolayer in medium consisting of EMEM supplemented with 10% fetal bovine serum and G418 sulfate (500 μg/ml). To prepare membranes for radioligand binding experiments, cells were rinsed twice with phosphate-buffered saline (138 mM NaCl, 4.1 mM KCl, 5.1 mM Na2PO4, 1.5 mM […], 11.1 mM glucose, pH 7.4). Cells were transferred from plates to polypropylene tubes (16×100 mm), centrifuged at 1,200×g for 5 min and were frozen at −80° C. until assay. Following centrifugation, pellets were resuspended by homogenization in buffer consisting of 50 mM Tris (pH 7.7 at 25° C.), 120 mM NaCl and 5 mM KCl and then centrifuged at 32,000×g for 10 min. Following centrifugation, supernatants were discarded and pellets were resuspended in buffer consisting of 50 mM Tris (pH 7.4 at 25° C.), 150 mM NaCl and 5 mM KCl. Membrane homogenates (200 μl/plate) were incubated with 1 nM [^3H]-citalopram (specific activity=85 Ci/mmol) and increasing concentrations of test compounds for 1 hr at 25° C. in a total volume of 250 μl. The assay buffer consisted of 50 mM Tris (pH 7.4 at 25° C.), 120 mM NaCl and 5 mM KCl (pH 7.4 with conc. HCl). Plates were incubated for 1 hr at 25° C., then filtered through 0.5% PEI treated Whatman GF/B filters using a Brandel cell harvester. Filters were washed three times with 3 ml of ice-cold tris wash buffer. Non-specific binding was defined with 10 μM fluoxetine. Amount of radioligand bound in the presence and absence of competitor was analyzed by plotting (−)log drug concentration versus the amount of radioligand specifically bound. The midpoint of the displacement curve (IC50, nM), signifies the potency. Ki values were calculated using the method of Cheng and Prusoff [Cheng, Y.-C. and Prusoff, W. H., Biochemical Pharmacology, Vol. 22, pp. 3099-3108, Pergamon Press (1973)].

Row | Structure (SMILES) | IC50 [1] [nM] | IC50 [2] [nM]
1 | N[C@H]1CC[C@](COCc2cc(C(F)(F)F)cc(C(F)(F)F)c2)(c2ccccc2)C1 [Example 7, (1S,3R)-3-((3,5-bis(trifluoromethyl)benzyloxy)methyl)-3-phenylcyclopentanamine] | < 20 | 20 to 100
2 | COCCN(C)C1CCC(COCc2cc(C(F)(F)F)cc(C(F)(F)F)c2)(c2ccccc2)C1 (stereo not drawn) [Example 5, 3-((3,5-bis(trifluoromethyl)benzyloxy)methyl)-N-(2-methoxyethyl)-N-methyl-3-phenylcyclopentanamine] | < 20 | –
3 | N[C@@H]1CC[C@](COCc2cc(C(F)(F)F)cc(C(F)(F)F)c2)(c2ccccc2)C1 [Example 9, (1R,3R)-3-((3,5-bis(trifluoromethyl)benzyloxy)methyl)-3-phenylcyclopentanamine] | < 20 | 20 to 100
4 | CN(C)C1CCC(COCc2cc(C(F)(F)F)cc(C(F)(F)F)c2)(c2ccccc2)C1 (stereo not drawn) [Example 6, 3-((3,5-bis(trifluoromethyl)benzyloxy)methyl)-N,N-dimethyl-3-phenylcyclopentanamine] | < 20 | 20 to 100
5 | FC(F)(F)c1cc(COCC2(c3ccccc3)CCCC(N3CCOCC3)C2)cc(C(F)(F)F)c1 (stereo not drawn) [Example 16, 4-(3-((3,5-bis(trifluoromethyl)benzyloxy)methyl)-3-phenylcyclohexyl)morpholine] | 100 to 300 | –
6 | FC(F)(F)c1cc(COCC2(c3ccccc3)CCC(N3CCCC3)C2)cc(C(F)(F)F)c1 (stereo not drawn) [Example 2, 1-(3-((3,5-Bis(trifluoromethyl)benzyloxy)methyl)-3-phenylcyclopentyl)pyrrolidine] | < 20 | –
7 | FC(F)(F)c1cc(COCC2(c3ccccc3)CCCC(N3CCCCC3)C2)cc(C(F)(F)F)c1 (stereo not drawn) [Example 18, 1-(3-((3,5-bis(trifluoromethyl)benzyloxy)methyl)-3-phenylcyclohexyl)piperidine] | 20 to 100 | –
8 | CN1CCN(C2CCCC(COCc3cc(C(F)(F)F)cc(C(F)(F)F)c3)(c3ccccc3)C2)CC1 (stereo not drawn) [Example 19, 1-(3-((3,5-bis(trifluoromethyl)benzyloxy)methyl)-3-phenylcyclohexyl)-4-methylpiperazine] | 100 to 300 | –
9 | CCNC1CCCC(COCc2cc(C(F)(F)F)cc(C(F)(F)F)c2)(c2ccccc2)C1 (stereo not drawn) [Example 14, 3-((3,5-bis(trifluoromethyl)benzyloxy)methyl)-N-ethyl-3-phenylcyclohexanamine] | < 20 | 100 to 300
10 | FC(F)(F)c1cc(COCC2(c3ccccc3)CCCC(NC3CC3)C2)cc(C(F)(F)F)c1 (stereo not drawn) [Example 15, 3-((3,5-bis(trifluoromethyl)benzyloxy)methyl)-N-cyclopropyl-3-phenylcyclohexanamine] | 20 to 100 | –
11 | CCN(CC)C1CCCC(COCc2cc(C(F)(F)F)cc(C(F)(F)F)c2)(c2ccccc2)C1 (stereo not drawn) [Example 13, 3-((3,5-bis(trifluoromethyl)benzyloxy)methyl)-N,N-diethyl-3-phenylcyclohexanamine] | 20 to 100 | 100 to 300
12 | N[C@@H]1CC[C@@](COCc2cc(C(F)(F)F)cc(C(F)(F)F)c2)(c2ccccc2)C1 [Example 8, (1R,3S)-3-((3,5-bis(trifluoromethyl)benzyloxy)methyl)-3-phenylcyclopentanamine] | < 20 | 100 to 300
13 | FC(F)(F)c1cc(COCC2(c3ccccc3)CCC(N3CCOCC3)C2)cc(C(F)(F)F)c1 (stereo not drawn) [Example 3, 4-(3-((3,5-bis(trifluoromethyl)benzyloxy)methyl)-3-phenylcyclopentyl)morpholine] | 20 to 100 | –
14 | CNC1CCCC(COCc2cc(C(F)(F)F)cc(C(F)(F)F)c2)(c2ccccc2)C1 (stereo not drawn) [Example 11, 3-((3,5-bis(trifluoromethyl)benzyloxy)methyl)-N-methyl-3-phenylcyclohexanamine] | < 20 | 100 to 300
15 | FC(F)(F)c1cc(COCC2(c3ccccc3)CCC(NC3CC3)C2)cc(C(F)(F)F)c1 (stereo not drawn) [Example 4, 3-((3,5-Bis(trifluoromethyl)benzyloxy)methyl)-N-cyclopropyl-3-phenylcyclopentanamine] | < 20 | –
16 | FC(F)(F)c1cc(COCC2(c3ccccc3)CCCC(N3CCCC3)C2)cc(C(F)(F)F)c1 (stereo not drawn) [Example 17, 1-(3-((3,5-bis(trifluoromethyl)benzyloxy)methyl)-3-phenylcyclohexyl)pyrrolidine] | 100 to 300 | –
17 | CN(C)C1CCCC(COCc2cc(C(F)(F)F)cc(C(F)(F)F)c2)(c2ccccc2)C1 (stereo not drawn) [Example 12, 3-((3,5-bis(trifluoromethyl)benzyloxy)methyl)-N,N-dimethyl-3-phenylcyclohexanamine] | 100 to 300 | –
18 | FC(F)(F)c1cc(COCC2(c3ccccc3)CCC(N3CCCCC3)C2)cc(C(F)(F)F)c1 (stereo not drawn) [Example 1, 1-(3-((3,5-Bis(trifluoromethyl)benzyloxy)methyl)-3-phenylcyclopentyl)piperidine] | < 20 | –
19 | N[C@H]1CC[C@@](COCc2cc(C(F)(F)F)cc(C(F)(F)F)c2)(c2ccccc2)C1 [Example 10, (1S,3S)-3-((3,5-bis(trifluoromethyl)benzyloxy)methyl)-3-phenylcyclopentanamine] | < 20 | < 20
